Experimental findings from patent US7728012B2, “Carboxamide compounds and their use as calpain inhibitors” (Abbott GmbH & Co. KG, priority 2006, dated 2010) are described below.

Common to all, as to type: biochemical
Assay [1] has as its target T1, calpain-I isolated from human erythrocytes (Homo sapiens, UniProt P07384).
T1 construct: calpain-I—isolated from human erythrocytes; purchased Calbiochem 208713; host or cells: human erythrocytes (tissue isolate)
T1 sequence (P07384 1-714): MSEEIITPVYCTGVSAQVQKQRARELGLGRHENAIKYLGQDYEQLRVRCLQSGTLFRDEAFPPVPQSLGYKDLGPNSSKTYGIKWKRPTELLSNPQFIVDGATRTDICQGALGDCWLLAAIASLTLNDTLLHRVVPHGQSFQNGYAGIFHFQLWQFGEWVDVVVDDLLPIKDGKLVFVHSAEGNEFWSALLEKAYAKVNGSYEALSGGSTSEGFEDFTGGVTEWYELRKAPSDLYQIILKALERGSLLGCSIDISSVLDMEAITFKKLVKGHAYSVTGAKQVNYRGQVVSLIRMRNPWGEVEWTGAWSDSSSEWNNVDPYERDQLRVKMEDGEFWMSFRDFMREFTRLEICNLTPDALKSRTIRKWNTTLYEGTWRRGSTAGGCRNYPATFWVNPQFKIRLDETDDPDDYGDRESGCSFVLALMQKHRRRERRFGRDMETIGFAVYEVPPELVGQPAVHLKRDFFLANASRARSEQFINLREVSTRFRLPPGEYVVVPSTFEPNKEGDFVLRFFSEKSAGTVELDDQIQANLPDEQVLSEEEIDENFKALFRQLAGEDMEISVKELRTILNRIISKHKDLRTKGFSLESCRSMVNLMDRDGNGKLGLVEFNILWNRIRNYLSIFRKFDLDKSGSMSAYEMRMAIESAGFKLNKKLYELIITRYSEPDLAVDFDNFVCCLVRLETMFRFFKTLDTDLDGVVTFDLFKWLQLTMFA
T1 sequence (P04632 1-268 partner): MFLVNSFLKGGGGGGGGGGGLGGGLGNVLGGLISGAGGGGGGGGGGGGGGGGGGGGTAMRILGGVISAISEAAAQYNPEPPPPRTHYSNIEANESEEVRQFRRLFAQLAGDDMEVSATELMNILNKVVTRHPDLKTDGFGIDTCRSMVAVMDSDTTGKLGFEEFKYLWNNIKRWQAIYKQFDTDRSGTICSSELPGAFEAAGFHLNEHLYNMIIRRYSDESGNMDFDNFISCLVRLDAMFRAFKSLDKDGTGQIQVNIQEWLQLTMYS
The assay is described as follows: Calpain I kinetic fluorescence enzyme inhibition assay. The following applies: apparent Ki from IC50 by Cheng-Prussoff; average of 2 to 4 dose-effect plots.

The target of assay [2] is T2, cathepsin B isolated from human liver (Homo sapiens, UniProt P07858).
T2 construct: cathepsin B—isolated from human liver; purchased Calbiochem 219362; host or cells: human liver (tissue isolate)
Kind of assay: Cathepsin B kinetic fluorescence enzyme inhibition assay. The following applies: selectivity ratio versus calpain I. In short, it runs like this:
(§1)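 Kinetic fluorescence (ex 390/em 460 nm) at room temperature in 50 mM MES, 2 mM EDTA, 0.05% Brij 35, 2.5 mM L-cysteine, pH 6.0. Cathepsin B (liver, 0.25 nM) with 100 μM Z-Phe-Arg-AMC; cathepsin L (liver, 1 nM) with 2 μM Z-Phe-Arg-AMC; recombinant E. coli cathepsin S (0.5 nM) with 20 μM Z-Val-Val-Arg-AMC. Ki via Cheng-Prusoff.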

Assay [3] addresses T3, cathepsin K activated from recombinant human procathepsin K (Homo sapiens, UniProt P43235).
T3 construct: purchased Calbiochem 342001; host or cells: E. coli
T3 sequence (P43235 115-329): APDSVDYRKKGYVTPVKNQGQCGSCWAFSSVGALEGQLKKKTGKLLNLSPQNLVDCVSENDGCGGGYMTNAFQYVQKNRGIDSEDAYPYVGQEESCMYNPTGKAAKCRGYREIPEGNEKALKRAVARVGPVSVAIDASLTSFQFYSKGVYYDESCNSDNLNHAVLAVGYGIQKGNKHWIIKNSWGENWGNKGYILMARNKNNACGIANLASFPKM
Kind of assay: Cathepsin K kinetic fluorescence enzyme inhibition assay. The following applies: selectivity ratio versus calpain I.

For assay [4], the target named is T4, cathepsin L isolated from human liver (Homo sapiens, UniProt P07711).
T4 construct: cathepsin L—isolated from human liver; purchased Calbiochem 219402; host or cells: human liver (tissue isolate)
T4 sequence (P07711 114-333): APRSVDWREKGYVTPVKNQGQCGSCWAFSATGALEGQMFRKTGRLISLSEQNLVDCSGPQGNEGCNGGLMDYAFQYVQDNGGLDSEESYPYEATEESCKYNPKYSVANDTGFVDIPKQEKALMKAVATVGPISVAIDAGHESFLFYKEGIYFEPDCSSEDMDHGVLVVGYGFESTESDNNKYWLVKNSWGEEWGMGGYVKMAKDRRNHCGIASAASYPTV
The assay is described as follows: Cathepsin L kinetic fluorescence enzyme inhibition assay. The conditions noted are these: selectivity ratio versus calpain I. The gist of the method: as §1

The target of assay [5] is T5, recombinant human cathepsin S (Homo sapiens, UniProt P25774).
T5 construct: purchased Calbiochem 219343; host or cells: E. coli
T5 sequence (P25774 115-331): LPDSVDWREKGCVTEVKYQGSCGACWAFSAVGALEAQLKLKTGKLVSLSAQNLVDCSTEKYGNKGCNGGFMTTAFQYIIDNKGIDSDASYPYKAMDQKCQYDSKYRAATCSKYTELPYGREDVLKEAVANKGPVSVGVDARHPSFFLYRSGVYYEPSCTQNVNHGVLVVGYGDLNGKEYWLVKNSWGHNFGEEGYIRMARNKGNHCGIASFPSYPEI
The assay is described as follows: Cathepsin S kinetic fluorescence enzyme inhibition assay. The conditions noted are these: selectivity ratio versus calpain I. The gist of the method:
as §1

Some results are limits rather than exact numbers.

For the compound `COc1ccc2c(c1)-c1nn(-c3ncccc3C(=O)NC(Cc3ccccc3)C(=O)C(N)=O)cc1CO2` (centres unmarked) [Example 183, N-[3-Aamino-2,3-dioxo-1-(phenylmethyl)propyl]-2-[8-(methyloxy)chromeno[4,3-c]pyrazol-2(4H)-yl]pyridine-3-carboxamide], the Ki in assay [1] was at most 40 nM. For the same compound, in assay [2], the “Sel cat. B (Ki(cathepsin B)/Ki(calpain) ratio)” value was “+ (10≦Ki(cathepsin B)/Ki(calpain)<30)”. In addition, the “Sel cat. K (Ki(cathepsin K)/Ki(calpain) ratio)” value in assay [3] is recorded as “+ (10≦Ki(cathepsin K)/Ki(calpain)<30)”. The “Sel cat. L (Ki(cathepsin L)/Ki(calpain) ratio)” value in assay [4] is “++ (Ki(cathepsin L)/Ki(calpain) ratio of ≧50)”. For the same compound, in assay [5], the “Sel cat. S (Ki(cathepsin S)/Ki(calpain) ratio)” value is reported as “++ (Ki(cathepsin S)/Ki(calpain) ratio of ≧100)”.
Consider `NC(=O)C(=O)C(Cc1ccccc1)NC(=O)c1cccnc1-n1cc(Cl)c(-c2ccc(F)cc2)n1` (centres unmarked) [Example 184, N-[3-Amino-2,3-dioxo-1-(phenylmethyl)propyl]-2-[4-chloro-3-(4-fluorophenyl)-1H-pyrazol-1-yl]pyridine-3-carboxamide], for which, in assay [1], the Ki was 40 to 100 nM. For the same compound, the “Sel cat. B (Ki(cathepsin B)/Ki(calpain) ratio)” value in assay [2] was “+ (10≦Ki(cathepsin B)/Ki(calpain)<30)”. The “Sel cat. K (Ki(cathepsin K)/Ki(calpain) ratio)” value in assay [3] is recorded as “+ (10≦Ki(cathepsin K)/Ki(calpain)<30)”. For the same compound, in assay [4], the “Sel cat. L (Ki(cathepsin L)/Ki(calpain) ratio)” value is on record as “++ (Ki(cathepsin L)/Ki(calpain) ratio of ≧50)”. The “Sel cat. S (Ki(cathepsin S)/Ki(calpain) ratio)” value in assay [5] is “++ (Ki(cathepsin S)/Ki(calpain) ratio of ≧100)”.
For `NC(=O)C(=O)C(Cc1ccccc1)NC(=O)c1cccnc1-n1ccc(C23CC4CC(CC(C4)C2)C3)n1` (centres unmarked) [Example 193, N-[3-Amino-2,3-dioxo-1-(phenylmethyl)propyl]-2-(3-tricyclo[3.3.1.1^3,7]dec-1-yl-1H-pyrazol-1-yl)pyridine-3-carboxamide] the same measures were at most 40 nM, “++ (Ki(cathepsin B)/Ki(calpain) ratio of ≧30)”, “++ (Ki(cathepsin K)/Ki(calpain) ratio of ≧30)”, “++ (Ki(cathepsin L)/Ki(calpain) ratio of ≧50)” and “++ (Ki(cathepsin S)/Ki(calpain) ratio of ≧100)”.
As for “N-[3-Amino-2,3-dioxo-1-(phenylmethyl)propyl]-2-[3-(3,5-dichlorophenyl)-1H-pyrazol-1-yl]pyridine-3-carboxamide [Example 89]”, the Ki in assay [1] was 40 to 100 nM. In assay [2], the “Sel cat. B (Ki(cathepsin B)/Ki(calpain) ratio)” value is reported as “+ (10≦Ki(cathepsin B)/Ki(calpain)<30)”. The “Sel cat. K (Ki(cathepsin K)/Ki(calpain) ratio)” value in assay [3] was “+ (10≦Ki(cathepsin K)/Ki(calpain)<30)”. For the same compound, the “Sel cat. L (Ki(cathepsin L)/Ki(calpain) ratio)” value in assay [4] is on record as “++ (Ki(cathepsin L)/Ki(calpain) ratio of ≧50)”. For the same compound, the “Sel cat. S (Ki(cathepsin S)/Ki(calpain) ratio)” value in assay [5] is given as “++ (Ki(cathepsin S)/Ki(calpain) ratio of ≧100)”.
